Test results as given in US9302999B2, “Substituted triazoles as herbicides” (E. I. DU PONT DE NEMOURS AND COMPANY, priority 2012, dated 2016).

Legend:
Format in all cases: in vivo
[1] = test system: nutsedge, yellow (yellow nutsedge, Cyperus esculentus); assay: Test F pre-/postemergence: nutsedge, yellow; conditions: Preemergence
Method in brief: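 Seeds were sown in silt loam soil and sprayed preemergence with test chemical in a non-phytotoxic solvent mixture containing surfactant; postemergence treatments went onto plants 2 to 18 cm tall (1- to 4-leaf stage) grown in peat moss/vermiculite medium. After 14 to 21 days in a greenhouse, injury was rated visually against controls, 0 (no effect) to 100 (complete control).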

[2] = test system: Waterhemp; assay: Test C pre-/postemergence: waterhemp; conditions: Preemergence, 250 g ai/ha; scale 0 to 100, 0 no effect, 100 complete control
[3] = test system: ragweed (common ragweed, Ambrosia elatior); assay: Test F pre-/postemergence: ragweed; conditions: Preemergence
Source text: (§1) Seeds of plant species selected from corn (Zea mays), soybean (Glycine max), velvetleaf (Abutilon theophrasti), lambsquarters (Chenopodium album), poinsettia, wild (wild poinsettia, Euphorbia heterophylla), pigweed, palmer (palmer pigweed, Amaranthus palmeri), waterhemp (common waterhemp, Amaranthus rudis), surinam grass (Brachiaria decumbens), crabgrass, Brazil (Brazilian crabgrass, Digitaria horizontalis), panicum, fall (fall panicum Panicum dichotomiflorum), crabgrass, large (large crabgrass, Digitaria sanguinalis), foxtail, giant (giant foxtail, Setaria faberii), foxtail, green (green foxtail Setaria viridis), goosegrass (Eleusine indica), ragweed (common ragweed, Ambrosia elatior), barnyardgrass (Echinochloa crus-galli), sandbur (southern sandbur, Cenchrus echinatus), arrowleaf sida (Sida rhombifolia), ryegrass, Italian (Italian ryegrass, Lolium multiflorum), dayflower, VA (Virginia (VA) dayflower, Commelina virginica), field bindweed (Convolvulus arvensis), cocklebur (common cocklebur, Xanthium strumarium), morningglory (Ipomoea coccinea), nightshade (eastern black nightshade, Solanum ptycanthum), kochia (Kochia scoparia), nutsedge, yellow (yellow nutsedge, Cyperus esculentus), johnsongrass (Sorghum halepense), smartweed (ladysthumb smartweed, Polygonum persicaria), and beggarticks (hairy beggarticks, Bidens pilosa), were planted into a silt loam soil and treated preemergence with test chemicals formulated in a non-phytotoxic solvent mixture which included a surfactant. At the same time, plants selected from these crop and weed species and also pigweed (Amaranthus retroflexus), waterhemp_RES1 (ALS/Triazine resistant common waterhemp, Amaranthus rudis) and waterhemp_RES2 (ALS/HPPD resistant common waterhemp, Amaranthus rudis) were planted in pots containing a planting medium comprising spaghnum peat moss, vermiculite, wetting agent and starter nutrients treated with postemergence applications of some of the test chemicals formulated in the same manner. Plants ranged in height from 2 to 18 cm for postemergence treatments (1- to 4-leaf stage).
(§2) Treated plants and controls were maintained in a greenhouse for 14 to 21 days, after which time all species were compared to controls and visually evaluated. Plant response ratings, summarized in Table E, are based on a scale of 0 to 100 where 0 is no effect and 100 is complete control. A dash (-) response means no test result.

[4] = test system: velvetleaf (Abutilon theophrasti); assay: Test F pre-/postemergence: velvetleaf; conditions: Preemergence
Source text: as §1, §2

[5] = 4 g ai/ha, scale 0 to 100, 0 no effect, 100 complete control
[6] = 8 g ai/ha, scale 0 to 100, 0 no effect, 100 complete control
[7] = 16 g ai/ha, scale 0 to 100 (0 no effect, 100 complete control)
[8] = 31 g ai/ha, scale 0 to 100 (0 no effect, 100 complete control)

## Cc1nn(-c2ccc(C(F)(F)F)c(F)c2)nc1Cc1ccnc(C(F)(F)F)c1 [Compound 162]
[1]; [5]
  Plant response rating, Nutsedge, Yellow: 0
[1]; [6]
  Plant response rating, Nutsedge, Yellow: 0
[1]; [7]
  Plant response rating, Nutsedge, Yellow: 35
[1]; [8]
  Plant response rating, Nutsedge, Yellow: 35
[2]
  Plant response rating, Waterhemp: 100
[3]; [5]
  Plant response rating, Ragweed: 0
[3]; [6]
  Plant response rating, Ragweed: 0
[3]; [7]
  Plant response rating, Ragweed: 0
[3]; [8]
  Plant response rating, Ragweed: 70
[4]; [5]
  Plant response rating, Velvetleaf: 0
[4]; [6]
  Plant response rating, Velvetleaf: 0
[4]; [7]
  Plant response rating, Velvetleaf: 0
[4]; [8]
  Plant response rating, Velvetleaf: 0
